Data on 27 molecules can be found in patent US20030153056A1, “Glycosyltransferase proteins” (priority 2000, published 2003).

Experiment [1] deals with T1, Brainiac β1-3-N-acetylglucosaminyltransferase (Drosophila melanogaster, UniProt Q24157).
T1 construct: The full coding region of Brainiac was prepared by PCR using genomic DNA; made in house; host or cells: High Five insect cells (baculovirus vector pVL1393); microsomal fractions
T1 sequence (Q24157 1-325): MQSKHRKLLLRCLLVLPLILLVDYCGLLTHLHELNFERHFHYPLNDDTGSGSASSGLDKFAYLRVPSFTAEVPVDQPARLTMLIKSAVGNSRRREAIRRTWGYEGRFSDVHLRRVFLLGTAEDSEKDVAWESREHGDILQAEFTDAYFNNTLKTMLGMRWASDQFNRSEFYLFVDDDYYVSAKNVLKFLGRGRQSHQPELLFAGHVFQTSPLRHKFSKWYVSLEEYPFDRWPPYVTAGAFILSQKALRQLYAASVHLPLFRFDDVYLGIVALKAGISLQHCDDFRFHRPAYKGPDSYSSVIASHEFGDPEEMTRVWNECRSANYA
Description: Substrate specificities of Brainiac β1-3-N-acetylglucosaminyltransferase (acceptor panel, microsomal preparations). Type of experiment: biochemical. The conditions noted are these: microsomes of pVL-Brainiac infected High Five cells, background of irrelevant construct subtracted, donor UDP-GlcNAc.

Experiment [2] addresses T2, Notch (Drosophila melanogaster, UniProt P07207).
T2 construct: expressed in transfected cells; host or cells: Drosophila Schneider S2 cells, transient transfection, pRmHa3
The experiment in a line: Delta-AP binding to Notch transfected S2 cells. The format is cell-based. The method, then: Cell culture and Binding assays: cDNAs for expression in Schneider S2 cells were cloned into pRmHa3. Cells were transiently transfected by the CaPO4 method using 6-8 μg of DNA per well in 6 well plates. Expression was induced by addition of 0.7 mM CuSO4 for 2 days. Conditioned medium was collected from Notch-AP and Delta-AP transfected cells 2 days after induction. AP activity was adjusted to normalise activity levels of Notch-AP or Delta-AP expressed with or without Fringe. Binding was performed as described in Cheng and Flanagan, 1994. In brief, AP-containing supernatants were supplemented with 0.1% NaN3, and incubated 90 min at room temperature. Cells were washed 5 times in HBSS containing 0.05% BSA and 0.1% azide, and lysed in 10 mM Tris pH 8, 1% Triton-X100. Endogenous AP was inactivated by heat treatment for 10 min 60° C. and the lysates clarified by centrifugation. AP activity was measured in 1M Diethanolamine, 1 mM MgCl2, 5 mM para-nitrophenyl phosphate. Bound AP activity was quantified in 96 well plates using a microplate reader and Micromanager software (BioRad). An additional replicate of each transfection was prepared for immunoblot analysis. Lysates were prepared separately for Immunoblot analysis to allow inclusion of protease inhibitors which are not used in the binding assay. To measure interaction of Delta-AP with transiently transfected S2 cells, bound AP activity was quantified in an enzymatic colour reaction. Cells transfected with empty vector were used as a control. […] AP activity is shown in mOD units/minute in cell extracts (replicate experiments are shown in this figure). In this experiment Fringe stimulated binding by over 50 fold. […] However, the assay allows measurement of Fringe-dependent stimulation of Delta-AP binding.

T2 sequence (P07207 53-2703): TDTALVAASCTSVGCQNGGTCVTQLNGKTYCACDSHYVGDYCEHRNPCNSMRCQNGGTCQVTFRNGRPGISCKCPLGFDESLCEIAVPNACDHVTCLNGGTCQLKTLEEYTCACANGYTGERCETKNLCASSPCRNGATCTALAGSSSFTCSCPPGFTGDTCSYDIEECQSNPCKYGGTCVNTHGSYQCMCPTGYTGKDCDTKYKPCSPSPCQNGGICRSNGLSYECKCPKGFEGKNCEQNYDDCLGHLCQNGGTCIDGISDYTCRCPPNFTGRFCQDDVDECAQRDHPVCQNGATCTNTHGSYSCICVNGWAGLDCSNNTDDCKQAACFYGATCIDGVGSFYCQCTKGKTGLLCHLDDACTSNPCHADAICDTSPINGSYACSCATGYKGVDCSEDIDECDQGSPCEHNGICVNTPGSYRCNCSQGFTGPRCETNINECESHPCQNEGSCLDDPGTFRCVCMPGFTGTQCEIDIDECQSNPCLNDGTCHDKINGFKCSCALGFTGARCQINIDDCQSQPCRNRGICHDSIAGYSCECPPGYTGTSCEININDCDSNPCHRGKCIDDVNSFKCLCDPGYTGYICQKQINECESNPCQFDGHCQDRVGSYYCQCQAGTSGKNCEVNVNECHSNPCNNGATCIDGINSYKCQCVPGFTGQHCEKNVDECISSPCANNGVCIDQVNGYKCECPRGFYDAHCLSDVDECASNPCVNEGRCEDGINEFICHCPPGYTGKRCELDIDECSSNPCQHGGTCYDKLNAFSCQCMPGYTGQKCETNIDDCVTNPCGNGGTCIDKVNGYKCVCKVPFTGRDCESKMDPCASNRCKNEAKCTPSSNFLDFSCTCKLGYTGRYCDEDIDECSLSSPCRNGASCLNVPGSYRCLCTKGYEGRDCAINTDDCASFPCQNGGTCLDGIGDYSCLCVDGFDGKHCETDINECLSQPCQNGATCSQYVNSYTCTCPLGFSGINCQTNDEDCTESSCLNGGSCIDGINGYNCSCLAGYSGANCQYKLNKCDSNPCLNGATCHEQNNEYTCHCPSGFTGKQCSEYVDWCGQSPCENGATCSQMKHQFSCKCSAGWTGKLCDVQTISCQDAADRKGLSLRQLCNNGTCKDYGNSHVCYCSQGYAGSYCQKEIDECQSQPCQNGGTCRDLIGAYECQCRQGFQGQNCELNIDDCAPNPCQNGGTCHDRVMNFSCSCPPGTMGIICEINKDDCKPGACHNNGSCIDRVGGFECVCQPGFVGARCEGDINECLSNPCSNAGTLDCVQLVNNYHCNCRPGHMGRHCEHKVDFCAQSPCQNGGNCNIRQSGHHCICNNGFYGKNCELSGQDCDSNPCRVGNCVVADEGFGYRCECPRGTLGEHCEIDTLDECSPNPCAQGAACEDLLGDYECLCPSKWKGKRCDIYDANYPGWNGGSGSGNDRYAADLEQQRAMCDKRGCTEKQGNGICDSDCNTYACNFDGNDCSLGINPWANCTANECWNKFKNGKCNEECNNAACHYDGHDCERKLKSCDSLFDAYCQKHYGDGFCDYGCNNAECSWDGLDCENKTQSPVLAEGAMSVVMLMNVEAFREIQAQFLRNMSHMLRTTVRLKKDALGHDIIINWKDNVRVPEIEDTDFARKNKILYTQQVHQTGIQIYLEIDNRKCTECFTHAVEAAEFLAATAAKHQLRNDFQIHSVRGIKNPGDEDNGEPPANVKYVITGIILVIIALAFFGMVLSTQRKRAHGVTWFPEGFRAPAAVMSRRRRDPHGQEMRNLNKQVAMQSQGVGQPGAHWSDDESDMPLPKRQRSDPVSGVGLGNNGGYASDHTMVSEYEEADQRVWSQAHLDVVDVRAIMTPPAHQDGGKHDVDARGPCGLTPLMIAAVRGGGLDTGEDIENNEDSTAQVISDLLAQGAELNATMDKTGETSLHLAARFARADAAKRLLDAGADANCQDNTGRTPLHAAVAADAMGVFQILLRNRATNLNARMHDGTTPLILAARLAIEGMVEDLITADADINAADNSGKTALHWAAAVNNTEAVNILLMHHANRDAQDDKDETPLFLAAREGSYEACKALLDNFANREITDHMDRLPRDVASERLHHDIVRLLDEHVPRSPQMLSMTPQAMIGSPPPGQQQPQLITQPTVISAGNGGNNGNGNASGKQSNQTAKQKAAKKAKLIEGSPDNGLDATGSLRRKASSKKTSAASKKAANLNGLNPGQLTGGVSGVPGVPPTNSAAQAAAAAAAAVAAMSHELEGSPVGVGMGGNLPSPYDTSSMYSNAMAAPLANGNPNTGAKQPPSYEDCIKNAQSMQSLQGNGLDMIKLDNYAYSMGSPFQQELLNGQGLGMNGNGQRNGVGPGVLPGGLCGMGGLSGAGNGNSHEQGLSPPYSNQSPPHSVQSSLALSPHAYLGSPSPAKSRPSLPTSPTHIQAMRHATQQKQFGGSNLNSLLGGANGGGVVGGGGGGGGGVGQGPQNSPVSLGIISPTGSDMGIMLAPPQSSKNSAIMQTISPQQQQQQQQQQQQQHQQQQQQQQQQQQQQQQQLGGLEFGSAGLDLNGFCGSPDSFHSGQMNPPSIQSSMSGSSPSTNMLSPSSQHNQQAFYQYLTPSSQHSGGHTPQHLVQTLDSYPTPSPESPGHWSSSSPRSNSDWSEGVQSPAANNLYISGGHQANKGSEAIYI

For the molecule `CC(=O)N[C@H]1[C@H](O[C@H]2[C@@H](O)[C@@H](CO)O[C@@H](O[C@H]3[C@H](O)[C@@H](O)C(O)O[C@@H]3CO)[C@@H]2O)O[C@H](CO)[C@@H](O[C@@H]2O[C@H](CO)[C@H](O)[C@H](O)[C@H]2O)[C@@H]1O` (mixture of isomers) [lacto-N-neo-tetraose], the “Brainiac activity with substrate” value in experiment [1] (substrate 2 mM) came out at 0.03 nmol/h/mg.
For `C[C@H]1OC(O)[C@H](O)[C@@H](O)[C@H]1O` (stereo partly drawn) [D-Fuc], the “Brainiac activity with substrate” value in experiment [1] (substrate 2 mM) and in experiment [1] (substrate 20 mM) was 0.01 nmol/h/mg in each case.
As to `Cc1cc(=O)oc2cc(O[C@H]3O[C@H](C)[C@H](O)[C@H](O)[C@H]3O)ccc12` [D-Fucα1-MeUmb], the “Brainiac activity with substrate” value in experiment [1] (substrate 2 mM) and in experiment [1] (substrate 20 mM) was 0.00 nmol/h/mg throughout.
Take `OC[C@H]1O[C@@H](O[C@@H]2[C@H](O)[C@@H](O)C(O)O[C@@H]2CO)[C@H](O)[C@@H](O)[C@H]1O` (stereo partly drawn) [Galβ1-4Gal]: the “Brainiac activity with substrate” value in experiment [1] (substrate 2 mM) and in experiment [1] (substrate 20 mM) was 0.00 nmol/h/mg in each case.
In the case of `CC(=O)N[C@H]1[C@H](OCc2ccccc2)O[C@H](CO)[C@@H](O[C@@H]2O[C@H](CO)[C@H](O)[C@H](O)[C@H]2O)[C@@H]1O` [Galβ1-4GlcNAcβ1-Bzl], the figures for the “Brainiac activity with substrate” value in experiment [1] (substrate 2 mM) and in experiment [1] (substrate 20 mM) were 0.04 nmol/h/mg and 0.02 nmol/h/mg, respectively.
The matching figures for `OC[C@H]1O[C@@H](O[C@H]2[C@H](O)[C@@H](O)C(O)O[C@@H]2CO)[C@H](O)[C@@H](O)[C@H]1O` (stereo partly drawn) [Galβ1-4Glc]: 0.42 nmol/h/mg and 3.08 nmol/h/mg.
The matching figures for `OC[C@H]1O[C@@H](O[C@H]2[C@H](O)[C@@H](O)[C@H](OCc3ccccc3)O[C@@H]2CO)[C@H](O)[C@@H](O)[C@H]1O` [Galβ1-4Glcβ1-Bzl]: 0.48 nmol/h/mg and 1.69 nmol/h/mg.
The matching figures for `CC(=O)N[C@@H]1C(O)O[C@H](CO)[C@@H](O[C@@H]2O[C@H](CO)[C@H](O)[C@H](O)[C@H]2O)[C@@H]1O` (stereo partly drawn) [Galβ1-4ManNAc]: 0.10 nmol/h/mg and 0.42 nmol/h/mg.
On to `OC[C@H]1O[C@@H](O[C@H]2[C@H](O)[C@H](O)C(O)O[C@@H]2CO)[C@H](O)[C@@H](O)[C@H]1O` (stereo partly drawn) [Galβ1-4Man], for which the entries for the “Brainiac activity with substrate” value in experiment [1] (substrate 2 mM) and in experiment [1] (substrate 20 mM) were 1.48 nmol/h/mg and 8.39 nmol/h/mg, respectively.
The matching figures for `Cc1cc(=O)oc2cc(O[C@@H]3O[C@H](CO)[C@H](O)[C@H](O)[C@H]3O)ccc12` [Galβ1-MeUmb]: 0.19 nmol/h/mg and 0.00 nmol/h/mg.
On to `O=[N+]([O-])c1ccccc1O[C@@H]1O[C@H](CO)[C@H](O)[C@H](O)[C@H]1O` [Galβ1-oNph], for which the “Brainiac activity with substrate” value in experiment [1] (substrate 2 mM) is 0.21 nmol/h/mg; in experiment [1] (substrate 20 mM), 0.02 nmol/h/mg.
As to `C[C@@H]1OC(N)[C@@H](O)[C@H](O)[C@@H]1O` (stereo partly drawn) [L-Fucosylamine], the “Brainiac activity with substrate” value worked out at 0.28 nmol/h/mg in experiment [1] (substrate 2 mM) and 0.60 nmol/h/mg in experiment [1] (substrate 20 mM).
On the same counts, the results for `Cc1cc(=O)oc2cc(O[C@@H]3O[C@@H](C)[C@@H](O)[C@@H](O)[C@@H]3O)ccc12` [L-Fucα1-MeUmb] are 0.00 nmol/h/mg and 0.00 nmol/h/mg.
As to `C[C@@H]1O[C@H](Oc2ccc([N+](=O)[O-])cc2)[C@@H](O)[C@H](O)[C@@H]1O` [L-Fucβ1-pNph], the results for the “Brainiac activity with substrate” value in experiment [1] (substrate 2 mM) and in experiment [1] (substrate 20 mM) were 0.01 nmol/h/mg and 0.02 nmol/h/mg, respectively.
On the same counts, the results for `COC1OC(CO)C(O)C(O)C1O` (stereo not drawn) [Manα1 -Me] are 0.36 nmol/h/mg and 0.61 nmol/h/mg.
On the same counts, the results for `OCC1OC(OCC2OC(OCC3OC(O)C(O)C(OC4OC(CO)C(O)C(O)C4O)C3O)C(O)C(OC3OC(CO)C(O)C(O)C3O)C2O)C(O)C(O)C1O` (stereo not drawn) [Manα1-3(Manα1-6)Manα1-6(Manα1-3)Man] are 0.09 nmol/h/mg and 0.45 nmol/h/mg.
On the same counts, the results for `CO[C@H]1O[C@H](CO)[C@@H](O)[C@H](O[C@H]2O[C@H](CO)[C@@H](O)[C@H](O)[C@@H]2O)[C@@H]1O` [Manα1-3Manα1-Me] are 0.00 nmol/h/mg and 0.00 nmol/h/mg.
`CO[C@H]1O[C@H](CO)[C@@H](O[C@H]2O[C@H](CO)[C@@H](O)[C@H](O)[C@@H]2O)[C@H](O)[C@@H]1O` [Manα1-4Manα1-Me]: the “Brainiac activity with substrate” value in experiment [1] (substrate 2 mM) and in experiment [1] (substrate 20 mM) was 0.00 nmol/h/mg throughout.
With `OC[C@H]1O[C@H](OC[C@H]2O[C@H](OCc3ccccc3)[C@@H](O)[C@@H](O[C@H]3O[C@H](CO)[C@@H](O)[C@H](O)[C@@H]3O)[C@@H]2O)[C@@H](O)[C@@H](O)[C@@H]1O` [Manα1-6(Manα1-3)Manα1-Bzl], the “Brainiac activity with substrate” value in experiment [1] (substrate 2 mM) was found to be 0.01 nmol/h/mg; in experiment [1] (substrate 20 mM), 0.08 nmol/h/mg.
On the same counts, the results for `CO[C@H]1O[C@H](CO[C@H]2O[C@H](CO)[C@@H](O)[C@H](O)[C@@H]2O)[C@@H](O)[C@H](O)[C@@H]1O` [Manα1-6Manα1-Me] are 0.02 nmol/h/mg and 0.05 nmol/h/mg.
On the same counts, the results for `Cc1cc(=O)oc2cc(O[C@H]3O[C@H](CO)[C@@H](O)[C@H](O)[C@@H]3O)ccc12` [Manα1-MeUmb] are 0.11 nmol/h/mg and 0.17 nmol/h/mg.
The matching figures for `CO[C@H]1O[C@H](CO)[C@@H](O)[C@H](O)[C@@H]1O[C@@H]1O[C@H](CO)[C@@H](O)[C@H](O)[C@@H]1O` [Manβ1-2Manα1-Me]: 0.15 nmol/h/mg and 0.16 nmol/h/mg.
For the molecule `Cc1cc(=O)oc2cc(O[C@@H]3O[C@H](CO)[C@@H](O)[C@H](O)[C@@H]3O)ccc12` [Manβ1-MeUmb], the “Brainiac activity with substrate” value in experiment [1] (substrate 2 mM) was found to be 5.25 nmol/h/mg; in experiment [1] (substrate 20 mM), 6.18 nmol/h/mg.
On the same counts, the results for `CO[C@@H]1O[C@H](CO)[C@@H](O)[C@H](O)[C@@H]1O` [Manβ1-Me] are 1.46 nmol/h/mg and 2.74 nmol/h/mg.
For the molecule `CC(=O)N[C@H]1[C@H](O[C@H]2[C@@H](O)[C@@H](CO)O[C@@H](O[C@H]3[C@H](O)[C@@H](O)C(O)O[C@@H]3CO)[C@@H]2O)O[C@H](CO)[C@@H](O)[C@@H]1O[C@@H]1O[C@H](CO)[C@H](O)[C@H](O)[C@H]1O` (stereo partly drawn) [lacto-N-tetraose], the “Brainiac activity with substrate” value in experiment [1] (substrate 2 mM) and in experiment [1] (substrate 20 mM) was 0.00 nmol/h/mg each time.
Consider Galβ1-4GlcNAc, for which the figures for the “Brainiac activity with substrate” value in experiment [1] (substrate 2 mM) and in experiment [1] (substrate 20 mM) were 0.03 nmol/h/mg and 0.12 nmol/h/mg, respectively.

B1: Fringe: Drosophila Fringe protein with a single C-terminal myc-epitope tag (protein, UniProt Q24342 1-412, looked up)
Fringe glycosyltransferase: MMSLTVLSPPQRFKRILQAMMLAVAVVYMTLLLYQSAYGYPGIQVPHSQVDALASEAVTTHRDQLLQDYVQSSTPTQPGAGAPAASPTTVIIRKDIRSFNFSDIEVSERPTATLLTELARRSRNGELLRDLSQRAVTATPQPPVTELDDIFISVKTTKNYHDTRLALIIKTWFQLARDQTWFFTDTDDHYYQEKTKGHLINTKCSQGHFRKALCCKMSAELDVFLESGKKWFCHFDDDNYVNVPRLVKLLDEYSPSVDWYLGKPSISSPLEIHLDSKNTTTNKKITFWFATGGAGFCLSRALTLKMLPIAGGGKFISIGDKIRFPDDVTMGFIIEHLLKVPLTVVDNFHSHLEPMEFIRQDTFQDQVSFSYAHMKNQWNVIKVDGFDMKTDPKRFYSLHCQLFPYFSFCPPR
modifications: C-terminal myc tag
For B1, the “Delta-AP binding, in words” value in experiment [2] (Notch-expressing cells co-cultured with Fringe-expressing cells for two days (secreted Fringe)) is “Delta-AP bound at background level”. In addition, in experiment [2] (co-expressed with Notch in S2 cells), the “Effect on Delta-AP binding, in words” value was “large increase in Delta-AP binding”. In addition, the “Stimulation of Delta-AP binding” value in experiment [2] (co-expressed with Notch in S2 cells, FIG. 3b) was “over 50 fold”.
